Results from patent publication US7902394B2, “Calcilytic compounds” (GlaxoSmithKline LLC, priority 2006, dated 2011).
pIC50: −log10 of the molar value.

Target: T1, human calcium receptor (Homo sapiens, UniProt P41180)
T1 construct: expressed in transfected cells; host or cells: HEK 293 4.0-7
T1 sequence (P41180 20-1078): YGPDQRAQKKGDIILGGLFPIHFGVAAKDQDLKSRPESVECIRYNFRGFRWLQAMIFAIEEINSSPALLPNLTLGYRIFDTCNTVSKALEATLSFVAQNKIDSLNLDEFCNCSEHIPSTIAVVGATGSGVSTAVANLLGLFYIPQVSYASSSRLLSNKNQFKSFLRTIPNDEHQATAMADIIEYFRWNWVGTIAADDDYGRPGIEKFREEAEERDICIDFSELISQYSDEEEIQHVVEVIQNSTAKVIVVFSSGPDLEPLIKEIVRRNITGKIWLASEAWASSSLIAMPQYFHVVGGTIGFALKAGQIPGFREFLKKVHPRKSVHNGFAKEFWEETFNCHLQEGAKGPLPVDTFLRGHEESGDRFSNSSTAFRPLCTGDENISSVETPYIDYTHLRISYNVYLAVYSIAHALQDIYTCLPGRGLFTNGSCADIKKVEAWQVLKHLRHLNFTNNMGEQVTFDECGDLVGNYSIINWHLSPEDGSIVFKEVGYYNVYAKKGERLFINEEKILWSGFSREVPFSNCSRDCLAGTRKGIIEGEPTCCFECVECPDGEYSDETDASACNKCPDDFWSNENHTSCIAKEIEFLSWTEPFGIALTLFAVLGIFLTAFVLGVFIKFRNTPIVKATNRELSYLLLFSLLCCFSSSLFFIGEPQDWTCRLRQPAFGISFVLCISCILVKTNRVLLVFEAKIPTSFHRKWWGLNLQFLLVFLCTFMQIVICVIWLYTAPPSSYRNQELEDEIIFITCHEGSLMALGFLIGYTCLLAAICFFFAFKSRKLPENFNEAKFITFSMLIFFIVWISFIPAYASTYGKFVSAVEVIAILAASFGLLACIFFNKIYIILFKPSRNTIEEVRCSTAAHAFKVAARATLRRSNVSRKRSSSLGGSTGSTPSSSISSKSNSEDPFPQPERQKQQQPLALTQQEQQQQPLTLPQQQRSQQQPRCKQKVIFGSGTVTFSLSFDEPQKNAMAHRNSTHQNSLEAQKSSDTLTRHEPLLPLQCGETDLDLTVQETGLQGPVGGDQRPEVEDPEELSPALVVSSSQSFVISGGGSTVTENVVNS
Assay: Calcium Receptor Inhibitor Assay (block of intracellular Ca2+ increase elicited by extracellular Ca2+, fluo-3)
Assay type: cell-based
Conditions: HEK 293 4.0-7 cells stably expressing the human calcium receptor; 10 uM was the limit of the assay; read-out: IC50 for blocking increases of intracellular Ca2+ elicited by extracellular Ca2+
Experimental: Calcilytic activity was measured by determining the IC50 of the test compound for blocking increases of intracellular Ca^2+ elicited by extracellular Ca^2+ in HEK 293 4.0-7 cells stably expressing the human calcium receptor. HEK 293 4.0-7 cells were constructed as described by Rogers et al., J. Bone Miner. Res. 10 Suppl. 1:S483, 1995 (hereby incorporated by reference to the extent required to conduct the present assay). Intracellular Ca^2+ increases were elicited by increasing extracellular Ca^2+ from 1 to 1.75 mM. Intracellular Ca^2+ was measured using fluo-3, a fluorescent calcium indicator.
Cells were maintained in T-150 flasks in selection media (DMEM supplemented with 10% fetal bovine serum and 200 ug/mL hygromycin B), under 5% CO2:95% air at 37° C. and were grown up to 90% confluency. The medium was decanted and the cell monolayer was washed twice with phosphate-buffered saline (PBS) kept at 37° C. After the second wash, 6 mL of 0.02% EDTA in PBS was added and incubated for 4 minutes at 37° C. Following the incubation, cells were dispersed by gentle agitation. Cells from 2 or 3 flasks were pooled and pelleted (100×g). The cellular pellet was resuspended in 10-15 mL of SPF-PCB+ and pelleted again by centrifugation. This washing was done twice.
Sulfate- and phosphate-free parathyroid cell buffer (SPF-PCB) contained 20 mM Na-Hepes, pH 7.4, 126 mM NaCl, 5 mM KCl, and 1 mM MgCl2. SPF-PCB was made up and stored at 4° C. On the day of use, SPF-PCB was supplemented with 1 mg/mL of D-glucose and 1 mM CaCl2 and then split into two fractions. To one fraction, bovine serum albumin (BSA; fraction V, ICN) was added at 5 mg/mL (SPF-PCB+). This buffer was used for washing, loading and maintaining the cells. The BSA-free fraction was used for diluting the cells in the cuvette for measurements of fluorescence.
The pellet was resuspended in 10 mL of SPF-PCB+ containing 2.2 uM fluo-3 (Molecular Probes) and incubated at room temperature for 35 minutes. Following the incubation period, the cells were pelleted by centrifugation. The resulting pellet was washed with SPF-PCB+. After this washing, cells were resuspended in SPF-PCB+ at a density of 1-2×10^6 cells/mL.
For recording fluorescent signals, 300 uL of cell suspension were diluted in 1.2 mL of SPF buffer containing 1 mM CaCl2 and 1 mg/mL of D-glucose. Measurements of fluorescence were performed at 37° C. with constant stirring using a spectrofluorimeter. Excitation and emission wavelengths were measured at 485 and 535 nm, respectively. To calibrate fluorescence signals, digitonin (5 mg/mL in ethanol) was added to obtain Fmax, and the apparent Fmin was determined by adding Tris-EGTA (2.5 M Tris-Base, 0.3 M EGTA). The concentration of intracellular calcium was calculated using the following equation: Intracellular calcium=[…]; where Kd=400 nM.
To determine the potential calcilytic activity of test compounds, cells were incubated with test compound (or vehicle as a control) for 90 seconds before increasing the concentration of extracellular Ca^2+ from 1 to 2 mM. Calcilytic compounds were detected by their ability to block, in a concentration-dependent manner, increases in the concentration of intracellular Ca^2+ elicited by extracellular Ca^2+.

SMILES | pIC50
Cc1ccc(CC(C)(C)NC[C@@H](O)c2cc(CCC(=O)O)cc(F)c2F)s1 [Example 16, 3-[3-((1S)-2-{[1,1-dimethyl-2-(5-methyl-2-thienyl)ethyl]amino}-1-hydroxyethyl)-4,5-difluorophenyl]propanoic acid] | < 5.00
CC(C)(Cc1cccs1)NC[C@@H](O)c1cc(CCC(=O)O)cc(F)c1F [Example 21, 3-[3-((1S)-2-{[1,1-dimethyl-2-(2-thienyl)ethyl]amino}-1-hydroxyethyl)-4,5-difluorophenyl]propanoic acid] | < 5.00
CC(C)(Cc1ccc(Cl)s1)NC[C@@H](O)c1cc(CCC(=O)O)cc(F)c1F [Example 24, 3-[3-((1S)-2-{[2-(5-chloro-2-thienyl)-1,1-dimethylethyl]amino}-1-hydroxyethyl)-4,5-difluorophenyl]propanoic acid] | < 5.00
CC(C)(CCc1ccccc1)NC[C@@H](O)c1cc(CCC(=O)O)cc(F)c1F [Example 22, 3-(3-{(1S)-2-[(1,1-dimethyl-3-phenylpropyl)amino]-1-hydroxyethyl}-4,5-difluorophenyl)propanoic acid] | < 5.00

Continued, values first:

pIC50 | SMILES
< 5.00 | Cc1ccc(CC(C)(C)NC[C@@H](O)c2cc(CCC(=O)O)cc(F)c2F)cc1F [Example 18, 3-[3,4-difluoro-5-((1S)-2-{[2-(3-fluoro-4-methylphenyl)-1,1-dimethylethyl]amino}-1-hydroxyethyl)phenyl]propanoic acid]
< 5.00 | COc1ccc(CCC(C)(C)NC[C@@H](O)c2cc(CCC(=O)O)cc(F)c2F)cc1 [Example 17, 3-{3-[(1S)-2-([1,1-dimethyl-3-[4-(methyloxy)phenyl]propyl}amino)-1-hydroxyethyl]-4,5-difluorophenyl]propanoic acid]
< 5.00 | CC(C)(Cc1ccc(Br)cc1)NC[C@@H](O)c1cc(CCC(=O)O)cc(F)c1F [Example 23, 3-[3-((1S)-2-{[2-(4-bromophenyl)-1,1-dimethylethyl]amino}-1-hydroxyethyl)-4,5-difluorophenyl]propanoic acid]
< 5.00 | CSc1ccc(CC(C)(C)NC[C@@H](O)c2cc(CCC(=O)O)cc(F)c2F)cc1 [Example 19, 3-{3-[(1S)-2-({1,1-dimethyl-2-[4-(methylthio)phenyl]ethyl}amino)-1-hydroxyethyl]-4,5-difluorophenyl}propanoic acid]
< 5.00 | CC(C)(Cc1ccc(C(C)(C)C)cc1)NC[C@@H](O)c1cc(CCC(=O)O)cc(F)c1F [Example 20, 3-{3-[(1S)-2-({2-[4-(1,1-dimethylethyl)phenyl]-1,1-dimethylethyl}amino)-1-hydroxyethyl]-4,5-difluorophenyl}propanoic acid]

Target: T2, Human Parathyroid Calcium Receptor (“HuPCaR”) (Homo sapiens, UniProt P41180)
T2 construct: expressed in transfected cells; host or cells: HEK 293 4.0-7 (plasma membrane preparation)
T2 sequence (P41180 20-1078): T1 sequence (P41180 20-1078)
Assay: Calcium Receptor Binding Assay (3H ligand displacement, HEK 293 4.0-7 membranes)
Conditions: 2 nM 3H compound, 4° C. 30 min, 10 uM was the limit of the assay
Experimental: HEK 293 4.0-7 cells stably transfected with the Human Parathyroid Calcium Receptor (“HuPCaR”) were scaled up in T180 tissue culture flasks. Plasma membrane was obtained by polytron homogenization or glass douncing in buffer (50 mM Tris-HCl pH 7.4, 1 mM EDTA, 3 mM MgCl2) in the presence of a protease inhibitor cocktail containing 1 uM Leupeptin, 0.04 uM Pepstatin, and 1 mM PMSF. Aliquoted membrane was snap frozen and stored at −80° C. ^3H labeled compound was radiolabeled to a radiospecific activity of 44 Ci/mmole and was aliquoted and stored in liquid nitrogen for radiochemical stability.
A typical reaction mixture contained 2 nM ^3H compound ((R,R)—N-4′-Methoxy-t-3-3′-methyl-1′-ethylphenyl-1-(1-naphthyl)ethylamine), or ^3H compound (R)—N-[2-Hydroxy-3-(3-chloro-2-cyanophenoxy)propyl]-1,1-dimethyl-2-(4-methoxyphenyl)ethylamine with 4-10 ug membrane in homogenization buffer containing 0.1% gelatin and 10% EtOH in a reaction volume of 0.5 mL. Incubation was performed in 12×75 polyethylene tubes in an ice water bath. To each tube 25 uL of test sample in 100% EtOH was added, followed by 400 uL of cold incubation buffer, and 25 uL of 40 nM ^3H-compound in 100% EtOH for a final concentration of 2 nM. The binding reaction was initiated by the addition of 50 uL of 80-200 ug/mL HEK 293 4.0-7 membrane diluted in incubation buffer, and allowed to incubate at 4° C. for 30 min. Wash buffer was 50 mM Tris-HCl containing 0.1% PEI. Nonspecific binding was determined by the addition of 100-fold excess of unlabeled homologous ligand, and was generally 20% of total binding. The binding reaction was terminated by rapid filtration onto 1% PEI pretreated GF/C filters using a Brandel Harvestor. Filters were placed in scintillation fluid and radioactivity assessed by liquid scintillation counting.

pIC50 | SMILES
< 5.00 | COc1ccc(CCC(C)(C)NC[C@@H](O)c2cc(CCC(=O)O)cc(F)c2F)cc1 [Example 17, 3-{3-[(1S)-2-([1,1-dimethyl-3-[4-(methyloxy)phenyl]propyl}amino)-1-hydroxyethyl]-4,5-difluorophenyl]propanoic acid]
< 5.00 | CC(C)(Cc1ccccc1)NC[C@@H](O)c1cc(CCC(=O)O)cc(F)c1F [Example 13, 3-(3-{(1S)-2-[(1,1-dimethyl-2-phenylethyl)amino]-1-hydroxyethyl}-4,5-difluorophenyl)propanoic acid]
< 5.00 | CC(C)(Cc1cccs1)NC[C@@H](O)c1cc(CCC(=O)O)cc(F)c1F [Example 21, 3-[3-((1S)-2-{[1,1-dimethyl-2-(2-thienyl)ethyl]amino}-1-hydroxyethyl)-4,5-difluorophenyl]propanoic acid]
